The test system of this data set is CCRIS mutagenicity, Ames/micronucleus/aberration tests. Description: CCRIS mutagenicity studies.
Setting [1] is: Test System: AMES SALMONELLA TYPHIMURIUM, Strain/Indicator: TA102, Metabolic Activation: NONE, Method: STANDARD PLATE.
[2] abbreviates: Test System: AMES SALMONELLA TYPHIMURIUM, Strain/Indicator: TA98, Metabolic Activation: NONE, Method: PREINCUBATION
Where [3] appears, read: Test System: AMES SALMONELLA TYPHIMURIUM, Strain/Indicator: TA100, Metabolic Activation: NONE, Method: PREINCUBATION
Where [4] appears, read: Test System: AMES SALMONELLA TYPHIMURIUM, Strain/Indicator: TA98, Metabolic Activation: NONE, Method: STANDARD PLATE.
Setting [5] is: Test System: AMES SALMONELLA TYPHIMURIUM, Strain/Indicator: TA98, Metabolic Activation: RAT, LIVER, S-9, AROCLOR 1254, Method: STANDARD PLATE.
Where [6] appears, read: Test System: AMES SALMONELLA TYPHIMURIUM, Strain/Indicator: TA100, Metabolic Activation: NONE, Method: STANDARD PLATE.
The mark [7] stands for this setting: Test System: AMES SALMONELLA TYPHIMURIUM, Strain/Indicator: TA100, Metabolic Activation: RAT, LIVER, S-9, AROCLOR 1254, Method: STANDARD PLATE.

Calls of active or inactive are those of the source. The rule behind the calls is not given here.

For the compound `O=[As](O)(O)O`, the mutagenic call reads like this: (End Point: IN VITRO CHROMOSOMAL ABERRATIONS, Test System: CHINESE HAMSTER OVARY (CHO), Metabolic Activation: NONE) “active; positive (structural changes: gaps, breaks)”; (End Point: IN VITRO MICRONUCLEUS, Test System: CHINESE HAMSTER V-79, Metabolic Activation: NONE) “active; positive”; (End Point: In vitro chromosomal aberrations, Test System: Human peripheral lymphocytes, Metabolic Activation: None) “active; positive”; (End Point: In vitro micronucleus, Test System: Human peripheral lymphocytes, Metabolic Activation: None) “active; positive”; (End Point: In vivo micronucleus, Test System: Bone marrow polychromatic erythrocytes, Species: Mouse, Strain/Sex: C57BI/6J/Female, Route: Oral) “inactive; negative”; under setting [1], “inactive; negative”. The mutagenic call reads like this: (Test System: CHINESE HAMSTER V-79, Strain/Indicator: SP5 V-79 (HPRT)/6-THIOGUANINE, Metabolic Activation: NONE, Method: STANDARD PLATE) “inactive; negative”; (Test System: CHINESE HAMSTER V-79, Strain/Indicator: SPD8 V-79 (HPRT)/6-THIOGUANINE, Metabolic Activation: NONE, Method: STANDARD PLATE) “active; positive”; (Test System: E. COLI, Strain/Indicator: WP2 UVRA, Metabolic Activation: NONE, Method: SPOT TEST) “inactive; negative”; (Test System: MOUSE LYMPHOMA, Strain/Indicator: L5178Y (TK+/TK-), Metabolic Activation: NONE, Method: SUSPENSION/PLATE) “active; positive”.

`Nc1cc(N)c(-c2ccccc2)c([N+](=O)[O-])c1`: the mutagenic call is “active; positive” under setting [2] and “active; positive” (Test System: AMES SALMONELLA TYPHIMURIUM, Strain/Indicator: TA98, Metabolic Activation: RAT, LIVER, S-9, KANECHLOR 500, Method: PREINCUBATION).

Take `C=C(C)C(=O)OCC(Br)CBr` (stereo not given): the mutagenic call was “active; positive” (Test System: AMES SALMONELLA TYPHIMURIUM, Strain/Indicator: TA98, Metabolic Activation: HAMSTER, LIVER, S-9, AROCLOR 1254 (10%), Method: PREINCUBATION); “inactive; negative” under setting [2]; “inactive; negative” (Test System: AMES SALMONELLA TYPHIMURIUM, Strain/Indicator: TA98, Metabolic Activation: RAT, LIVER, S-9, AROCLOR 1254 (10%), Method: PREINCUBATION); “active; positive” (Test System: AMES SALMONELLA TYPHIMURIUM, Strain/Indicator: TA100, Metabolic Activation: HAMSTER, LIVER, S-9, AROCLOR 1254 (10%), Method: PREINCUBATION); “inactive; negative” under setting [3]; “active; positive” (Test System: AMES SALMONELLA TYPHIMURIUM, Strain/Indicator: TA100, Metabolic Activation: RAT, LIVER, S-9, AROCLOR 1254 (10%), Method: PREINCUBATION). The mutagenic call is “active; positive” (Test System: AMES SALMONELLA TYPHIMURIUM, Strain/Indicator: TA1535, Metabolic Activation: HAMSTER, LIVER, S-9, AROCLOR 1254 (10%), Method: PREINCUBATION); “inactive; negative” (Test System: AMES SALMONELLA TYPHIMURIUM, Strain/Indicator: TA1535, Metabolic Activation: NONE, Method: PREINCUBATION); “active; positive” (Test System: AMES SALMONELLA TYPHIMURIUM, Strain/Indicator: TA1535, Metabolic Activation: RAT, LIVER, S-9, AROCLOR 1254 (10%), Method: PREINCUBATION); “inactive; negative” (Test System: AMES SALMONELLA TYPHIMURIUM, Strain/Indicator: TA1537, Metabolic Activation: HAMSTER, LIVER, S-9, AROCLOR 1254 (10%), Method: PREINCUBATION); “inactive; negative” (Test System: AMES SALMONELLA TYPHIMURIUM, Strain/Indicator: TA1537, Metabolic Activation: NONE, Method: PREINCUBATION); “inactive; negative” (Test System: AMES SALMONELLA TYPHIMURIUM, Strain/Indicator: TA1537, Metabolic Activation: RAT, LIVER, S-9, AROCLOR 1254 (10%), Method: PREINCUBATION).

In the case of `OCCNc1ccc(N=Nc2ccc(NCCO)cc2)cc1`, the mutagenic call is “active; positive” (Test System: AMES SALMONELLA TYPHIMURIUM, Strain/Indicator: TA98, Metabolic Activation: HAMSTER, LIVER, S-9, AROCLOR 1254, Method: STANDARD PLATE); “inactive; negative” under setting [4]; “active; positive” (Test System: AMES SALMONELLA TYPHIMURIUM, Strain/Indicator: TA98, Metabolic Activation: RAT, LIVER, S-9, AROCLOR 1254, Method: PREINCUBATION); “active; positive” under setting [5]; “inactive; negative” under setting [6]; “inactive; negative” under setting [7]. Moreover, the mutagenic call is, setting by setting: (Test System: AMES SALMONELLA TYPHIMURIUM, Strain/Indicator: TA1535, Metabolic Activation: NONE, Method: STANDARD PLATE) “inactive; negative”; (Test System: AMES SALMONELLA TYPHIMURIUM, Strain/Indicator: TA1535, Metabolic Activation: RAT, LIVER, S-9, AROCLOR 1254, Method: STANDARD PLATE) “inactive; negative”; (Test System: AMES SALMONELLA TYPHIMURIUM, Strain/Indicator: TA1537, Metabolic Activation: NONE, Method: STANDARD PLATE) “inactive; negative”; (Test System: AMES SALMONELLA TYPHIMURIUM, Strain/Indicator: TA1537, Metabolic Activation: RAT, LIVER, S-9, AROCLOR 1254, Method: STANDARD PLATE) “inactive; negative”; (Test System: AMES SALMONELLA TYPHIMURIUM, Strain/Indicator: TA1538, Metabolic Activation: NONE, Method: STANDARD PLATE) “inactive; negative”; (Test System: AMES SALMONELLA TYPHIMURIUM, Strain/Indicator: TA1538, Metabolic Activation: RAT, LIVER, S-9, AROCLOR 1254, Method: STANDARD PLATE) “active; positive”.

`C=C1C[C@@]23CC[C@H]4[C@@](C)(CCC[C@@]4(C)C(=O)O)[C@@H]2CC[C@@H]1C3`: the mutagenic call (Test System: AMES SALMONELLA TYPHIMURIUM, Strain/Indicator: TM677, Metabolic Activation: RAT, LIVER, S-9, AROCLOR 1254, Method: PREINCUBATION) was “inactive; negative”.

Consider `O=C/C=C/c1ccc([N+](=O)[O-])o1`, for which the mutagenic call runs as follows: (Test System: AMES SALMONELLA TYPHIMURIUM, Strain/Indicator: TA98(1,8-DNP6), Metabolic Activation: NONE, Method: STANDARD PLATE) “active; positive”; (Test System: AMES SALMONELLA TYPHIMURIUM, Strain/Indicator: TA98(1,8-DNP6), Metabolic Activation: RAT, LIVER, S-9, 3-METHYLCHOLANTHRENE, Method: STANDARD PLATE) “active; positive”; (Test System: AMES SALMONELLA TYPHIMURIUM, Strain/Indicator: TA98(NR), Metabolic Activation: NONE, Method: STANDARD PLATE) “active; positive”; (Test System: AMES SALMONELLA TYPHIMURIUM, Strain/Indicator: TA98(NR), Metabolic Activation: RAT, LIVER, S-9, 3-METHYLCHOLANTHRENE, Method: STANDARD PLATE) “active; positive”; under setting [4], “active; positive”; (Test System: AMES SALMONELLA TYPHIMURIUM, Strain/Indicator: TA98, Metabolic Activation: RAT, LIVER, S-9, 3-METHYLCHOLANTHRENE, Method: STANDARD PLATE) “active; positive”. Besides, the mutagenic call is “active; positive” (Test System: AMES SALMONELLA TYPHIMURIUM, Strain/Indicator: TA100(1,8-DNP6), Metabolic Activation: NONE, Method: PREINCUBATION); “active; positive” (Test System: AMES SALMONELLA TYPHIMURIUM, Strain/Indicator: TA100(1,8-DNP6), Metabolic Activation: RAT, LIVER, S-9, AROCLOR 1254, Method: PREINCUBATION); “active; positive” (Test System: AMES SALMONELLA TYPHIMURIUM, Strain/Indicator: TA100(NR), Metabolic Activation: NONE, Method: PREINCUBATION); “active; positive” (Test System: AMES SALMONELLA TYPHIMURIUM, Strain/Indicator: TA100(NR), Metabolic Activation: RAT, LIVER, S-9, AROCLOR 1254, Method: PREINCUBATION); “active; positive” under setting [3]; “active; positive” (Test System: AMES SALMONELLA TYPHIMURIUM, Strain/Indicator: TA100, Metabolic Activation: RAT, LIVER, S-9, AROCLOR 1254, Method: PREINCUBATION).

Turning to `CC(C)NCC(O)COc1cccc2c1C=CC2` (stereo not given), the mutagenic call is “inactive; negative” under setting [4]; “inactive; negative” under setting [5]; “inactive; negative” under setting [6]; “inactive; negative” under setting [7]; “inactive; negative” under setting [1]; “inactive; negative” (Test System: AMES SALMONELLA TYPHIMURIUM, Strain/Indicator: TA102, Metabolic Activation: RAT, LIVER, S-9, AROCLOR 1254, Method: STANDARD PLATE).

Values taken from PubChem BioAssay AID1259407 (Chemical Carcinogenesis Research Information System (CCRIS), 2018).
